Experimental data as given in patent publication US8975415B2, “Chromane compounds” (CoMentis, Inc., priority 2012, dated 2015).

Key:
BACE1 [1] = biological target: T1, BACE1 (Homo sapiens (Human), UniProt P56817); experiment: Measurement of BACE1 inhibition by fluorescence resonance energy transfer (FRET), MCA substrate; details: FRET; for IC50: read-out: Test Example 1 IC50, MCA-SEVNLDAEFK(DNP)-NH2 substrate, pH 4.4; for Ki: read-out: Test Example 1 BACE1 MCA Ki, MCA substrate
Target sequence in this assay (P56817 75-416): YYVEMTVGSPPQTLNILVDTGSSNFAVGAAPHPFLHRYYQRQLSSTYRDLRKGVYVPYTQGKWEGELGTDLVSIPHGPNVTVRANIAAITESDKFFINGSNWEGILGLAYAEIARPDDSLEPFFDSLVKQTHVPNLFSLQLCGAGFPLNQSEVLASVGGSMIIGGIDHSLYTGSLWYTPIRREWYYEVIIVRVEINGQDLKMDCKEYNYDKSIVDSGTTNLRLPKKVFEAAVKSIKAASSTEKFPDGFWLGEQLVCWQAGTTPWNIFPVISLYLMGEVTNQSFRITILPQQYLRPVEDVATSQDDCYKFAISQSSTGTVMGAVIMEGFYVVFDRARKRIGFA

BACE1 [2] = biological target: T1, BACE1; experiment: Measurement of Aβ production inhibition in cell (SK-N-BE(2) neuroblastoma cells, Aβ40 ELISA); details: SK-N-BE(2) cells, 6 hours
Target sequence in this assay (P56817 46-501): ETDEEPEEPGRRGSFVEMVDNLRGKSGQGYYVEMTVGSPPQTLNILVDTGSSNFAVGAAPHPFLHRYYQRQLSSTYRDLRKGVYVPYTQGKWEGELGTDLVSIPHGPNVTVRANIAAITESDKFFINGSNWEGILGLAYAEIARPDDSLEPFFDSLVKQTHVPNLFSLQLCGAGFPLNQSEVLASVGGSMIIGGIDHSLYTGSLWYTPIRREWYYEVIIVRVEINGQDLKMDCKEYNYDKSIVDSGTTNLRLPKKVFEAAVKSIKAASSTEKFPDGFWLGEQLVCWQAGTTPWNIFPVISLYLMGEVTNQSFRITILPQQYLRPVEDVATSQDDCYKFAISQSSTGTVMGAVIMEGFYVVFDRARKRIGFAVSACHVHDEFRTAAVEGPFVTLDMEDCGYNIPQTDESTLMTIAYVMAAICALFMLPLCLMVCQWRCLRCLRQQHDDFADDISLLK
Method: The potency of compounds against BACE1 activity was determined in a cellular assay of Aβ production. […] Test compounds were dissolved in dimethyl sulfoxide and diluted with dimethyl sulfoxide and put into RPMI1640/5% FBS/penicillin-streptomycin media (final dimethyl sulfoxide concentration is 0.5%). […] CellTiter-Glo Substrate was dissolved into CellTiter-Glo Buffer and added to the plates in 95 μL/well. After shaking the plates for 2 minutes, the whole sample was transferred into a white 96-well plate and luminescence was measured for ATP quantification as the cell viability. Aβ concentration measured by ELISA was normalized by the viability of the corresponding cells.

[3] = Test Example 3 IC50, Aβ40 production

Structure (SMILES)	IC50 (BACE1 [1])	IC50 (BACE1 [2]; [3])	Ki (BACE1 [1])	IC50 (BACE1 [2]; read-out: Test Example 3 IC50, Aβ40 production)
NC1=NC2(CS1)c1cc(Br)ccc1OCC21COC1 (stereo not shown) [RP 41, 6′-bromodispiro[oxetane-3,3′-chromene-4′,4″-[1,3]thiazol]-2″-amine]	24800 nM	> 30000 nM		
COCC#Cc1cncc(-c2ccc3c(c2)C2(COC(N)=N2)C2(COC2)CO3)c1 (stereo not shown) [RP 19, 6′-[5-(3-methoxyprop-1-yn-1-yl)pyridin-3-yl]dispiro[1,3-oxazole-4,4′-chromene-3′,3″-oxetan]-2-amine]	2310 nM	430 nM		
CC1(C)Oc2ccc(-c3cc(Cl)cnc3Cl)cc2C2(COC(N)=N2)C12COC2 (stereo not shown) [RP 152]	688 nM	110 nM		
COc1cc(-c2ccc3c(c2)C2(COC(N)=N2)C2(COC2)C2(CCC2)O3)c(F)cn1 (stereo not shown) [RP 122]	2740 nM	1100 nM		
CC1(C)Oc2ccc(-c3cccc(C4CC4)c3)cc2C2(COC(N)=N2)C12COC2 (stereo not shown) [RP 140]	389 nM	410 nM		
COc1cncc(-c2ccc3c(c2)[C@@]2(COC(N)=N2)C2(COC2)[C@@H](C)O3)c1 (racemic) [RP 81]	1890 nM	510 nM		
CC1(C)Oc2ccc(-c3cc(F)cnc3Cl)cc2C2(COC(N)=N2)C12COC2 (stereo not shown) [RP 153]	1130 nM	130 nM		
NC1=NC2(CO1)c1cc(-c3cncnc3)ccc1OCC21CCCO1 (stereo not shown) [RP 97]	20200 nM	2600 nM		
N#Cc1cccc(-c2ccc3c(c2)C2(COC(N)=N2)C2(COC2)C2(CCC2)O3)c1 (stereo not shown) [RP 128]	1680 nM	1500 nM		
CCC(CC)Cc1ccc2c(c1)C1(COC(N)=N1)C1(COC1)C1(CCC1)O2 (stereo not shown) [RP 47]	2330 nM	1400 nM		
CCOc1cccc(-c2ccc3c(c2)C2(COC(N)=N2)C2(COC2)C2(CCC2)O3)c1 (stereo not shown) [RP 131]	2020 nM	3200 nM		
CCOc1cc(F)cc(-c2ccc3c(c2)C2(COC(N)=N2)C2(COC2)C2(CCC2)O3)c1 (stereo not shown) [RP 133]	1670 nM	2800 nM		
COc1cnc(C(=O)Nc2ccc3c(c2)C2(COC(N)=N2)C2(CC2)CO3)cn1 (stereo not shown) [RP 193]	1040 nM	81 nM		
NC1=NC2(CO1)c1cc(NC(=O)c3ccc(F)cn3)ccc1OCC21CC1 (stereo not shown) [RP 31, N-(2″-aminodispiro[cyclopropane-1,3′-chromene-4′,4″-[1,3]oxazol]-6′-yl)-5-fluoropyridine-2-carboxamide]	1060 nM	61 nM	1030 nM	
CC1(C)Oc2ccc(-c3cccc(C(F)(F)F)c3)cc2C2(COC(N)=N2)C12COC2 (stereo not shown) [RP 141]	903 nM	1300 nM		
NC1=NC2(CO1)c1cc(-c3cncc(C#CC4CC4)c3)ccc1OC1(CCC1)C21COC1 (stereo not shown) [RP 48, 6′-[5-(cyclopropylethynyl)pyridin-3-yl]trispiro[cyclobutane-1,2′ chromene-4′,4″-[1,3]oxazole-3′,3′″-oxetan]-2″-amine]	1130 nM	690 nM		
CC1(C)Oc2ccc(-c3cc(F)cc(F)c3)cc2C2(COC(N)=N2)C12COC2 (stereo not shown) [RP 147]	621 nM	170 nM		
N#C/C=C/c1cccc(-c2ccc3c(c2)C2(COC(N)=N2)C2(COC2)C2(CCC2)O3)c1 (stereo not shown) [RP 132]	2450 nM	1200 nM		
CC1(C)Oc2ccc(-c3cccnc3F)cc2C2(COC(N)=N2)C12COC2 (stereo not shown) [RP 82]	348 nM	36 nM		
NC1=NC2(CO1)c1cc(-c3cc(Cl)cnc3F)ccc1OC1(CCC1)C21COC1 (stereo not shown) [RP 73]	827 nM	70 nM		
COc1cccc(-c2ccc3c(c2)C2(COC(N)=N2)C2(COC2)C(C)(C)O3)c1 (stereo not shown) [RP 142]	401 nM	150 nM		
COc1ccc(F)c(-c2ccc3c(c2)C2(COC(N)=N2)C2(COC2)C2(CCC2)O3)c1 (stereo not shown) [RP 136, 6′-(2-fluoro-5-methoxyphenyl)trispiro[cyclobutane-1,2′-chromene-4′,4″-[1,3]oxazole-3′,3′″-oxetan]-2″-amine]	635 nM	660 nM		

Structure (SMILES)	IC50 (BACE1 [1])	IC50 (BACE1 [2]; [3])	Ki (BACE1 [1])	IC50 (BACE1 [2]; read-out: Test Example 3 IC50, Aβ40 production)
Cc1cnc(Cl)c(-c2ccc3c(c2)C2(COC(N)=N2)C2(COC2)C(C)(C)O3)c1 (stereo not shown) [RP 151]	1360 nM	280 nM		
CCC1Oc2ccc(-c3cncnc3)cc2C2(COC(N)=N2)C12COC2 (stereo not shown) [RP 87]	1550 nM	430 nM		
COc1ccc(F)c(-c2ccc3c(c2)C2(COC(N)=N2)C2(COC2)CO3)c1 (stereo not shown) [RP 33]	1520 nM	950 nM		
NC1=NC2(CO1)c1cc(-c3cccnc3F)ccc1OCC21CC1 (stereo not shown) [RP 103]	2190 nM	450 nM		
NC1=NC2(CO1)c1cc(-c3cncc(Cl)c3)ccc1OCC21CC1 (stereo not shown) [RP 107]	1060 nM	460 nM		
CC1(C)Oc2ccc(-c3cncnc3)cc2C2(COC(N)=N2)C12COC2 (stereo not shown) [RP 69]	397 nM	40 nM		
NC1=NC2(CO1)c1cc(Nc3ncccc3Cl)ccc1OC1(CCC1)C21COC1 (stereo not shown) [RP 44]	602 nM	98 nM		
CC#Cc1cncc(-c2ccc3c(c2)C2(COC(N)=N2)C2(COC2)C(CC2CC2)O3)c1 (stereo not shown) [RP 205]	126 nM	22 nM	82.5 nM	
C#Cc1cncc(-c2ccc3c(c2)C2(COC(N)=N2)C2(COC2)CO3)c1 (stereo not shown) [RP 23]	519 nM	900 nM		
CC1(C)Oc2ccc(-c3cncnc3)cc2C2(COC(N)=N2)C12COC2 (single isomer, unassigned) [RP 51b, 2′,2′-dimethyl-6′-(pyrimidin-5-yl)dispiro[1,3-oxazole-4,4′-chromene-3′,3″-oxetan]-2-amine]	172 nM	72 nM	137 nM	
NC1=NC2(c3cc(-c4cncnc4)ccc3OCC23CC3)C(F)(F)CO1 (stereo not shown) [RP 206]	4910 nM	> 30000 nM		
CC1(C)Oc2ccc(C3=CCCCCC3)cc2C2(COC(N)=N2)C12COC2 (stereo not shown) [RP 165]	760 nM			
CCCC1Oc2ccc(-c3cncnc3)cc2C2(COC(N)=N2)C12COC2 (stereo not shown) [RP 94]	862 nM	380 nM		
NC1=NC2(CO1)c1cc(-c3cc(F)ccc3F)ccc1OC1(CCC1)C21COC1 (stereo not shown) [RP 130]	1870 nM	1700 nM		
CC#Cc1cncc(-c2ccc3c(c2)C2(COC(N)=N2)C2(CCC2)CO3)c1 (stereo not shown) [RP 113]	1110 nM	470 nM		
CCOc1cccc(-c2ccc3c(c2)C2(COC(N)=N2)C2(COC2)C(C)(C)O3)c1 (stereo not shown) [RP 144]	879 nM	460 nM		
Cc1cc(F)cc(-c2ccc3c(c2)C2(COC(N)=N2)C2(COC2)C(C)(C)O3)c1 (stereo not shown) [RP 148]	614 nM	480 nM		
CC#Cc1cncc(-c2cc3c(cc2F)OCC2(CC2)C32COC(N)=N2)c1 (stereo not shown) [RP 112]	400 nM	660 nM		
NC1=NC2(CO1)c1cc(-c3cccc(F)c3F)ccc1OC1(CCC1)C21COC1 (stereo not shown) [RP 138]	1670 nM	1500 nM		
COc1cccc(-c2ccc3c(c2)C2(COC(N)=N2)C2(COC2)C2(CCC2)O3)c1F (stereo not shown) [RP 137]	773 nM	830 nM		
CCOc1cc(-c2ccc3c(c2)C2(COC(N)=N2)C2(COC2)C2(CCC2)O3)cc(C(F)(F)F)c1 (stereo not shown) [RP 129]	2210 nM	7300 nM		
NC1=NC2(CO1)c1cc(-c3cncnc3)ccc1OCC21COC1 (stereo not shown) [RP 36]	2900 nM	810 nM		

Structure (SMILES)	IC50 (BACE1 [1])	IC50 (BACE1 [2]; [3])	Ki (BACE1 [1])	IC50 (BACE1 [2]; read-out: Test Example 3 IC50, Aβ40 production)
COc1cccnc1Nc1ccc2c(c1)C1(COC(N)=N1)C1(COC1)CO2 (stereo not shown) [RP 26]	3750 nM	69 nM		
CCC1Oc2ccc(Br)cc2C2(COC(N)=N2)C12COC2 (single isomer, unassigned) [RP 9b]	24400 nM			
NC1=NC2(CO1)c1cc(-c3ccccc3F)ccc1OC1(CCC1)C21COC1 (stereo not shown) [RP 124]	3590 nM			
N#Cc1cc(-c2ccc3c(c2)C2(COC(N)=N2)C2(COC2)C2(CCC2)O3)ccc1F (stereo not shown) [RP 134]	3630 nM			
NC1=NC2(CO1)c1cc(Nc3ccccn3)ccc1OCC21COC1 (stereo not shown) [RP 25]	36900 nM			
CC1(C)Oc2ccc(NC(=O)c3ncc(Cl)cc3F)cc2C2(COC(N)=N2)C12COC2 (stereo not shown) [Example 30]			51.5 nM	2.3 nM
CC1(C)Oc2ccc(-c3cncc(C#N)c3)cc2C2(COC(N)=N2)C12COC2 (stereo not shown) [RP 160]	981 nM			
CC#Cc1ccnc(-c2ccc3c(c2)C2(COC(N)=N2)C2(COC2)CO3)c1 (stereo not shown) [RP 56]		740 nM		
NC1=NC2(CO1)c1cc(-c3cncnc3)ccc1OCC21CCCO1 (stereo not shown) [RP 98]	64100 nM			
NC1=NC2(CO1)c1cc(Br)ccc1OCC21CC1 (stereo not shown) [RP 17]	30200 nM			
CC(C)CC1Oc2ccc(Br)cc2C2(COC(N)=N2)C12COC2 (single isomer, unassigned) [RP 13a]	11100 nM			
CC1(C)Oc2ccc(-c3cncnc3)cc2C2(COC(N)=N2)C12COC2 (single isomer, unassigned) [RP 51a, 2′,2′-dimethyl-6′-(pyrimidin-5-yl)dispiro[1,3-oxazole-4,4′-chromene-3′,3″-oxetan]-2-amine]	48600 nM			
NC1=NC2(CO1)c1cc(-c3ccccc3)ccc1OC1(CCC1)C21COC1 (stereo not shown) [RP 123]	3390 nM			
NC1=NC2(CO1)c1cc(-c3ccc(F)nc3F)ccc1OC1(CCC1)C21COC1 (stereo not shown) [RP 121]	3370 nM			
NC1=NC2(CO1)c1cc(Br)ccc1OCC21CCCO1 (single isomer, unassigned) [RP 1a, 6′-bromo-4,5-dihydro-3H-dispiro[furan-2,3′-chromene-4′,4″-[1,3]oxazol]-2″-amine]	73300 nM			
CC1(C)Oc2ccc(-c3ccnc(Cl)c3Cl)cc2C2(COC(N)=N2)C12COC2 (stereo not shown) [RP 159]	2120 nM			
CCC/C=C/c1ccc2c(c1)C1(COC(N)=N1)C1(COC1)C(C)(C)O2 (stereo not shown) [RP 167]	869 nM			
NC1=NC2(CO1)c1cc(Br)ccc1OC(CCC(F)(F)F)C21COC1 (single isomer, unassigned) [RP 14b]	44200 nM			
NC1=NC2(CO1)c1cc(Br)c(F)cc1OCC21CC1 (stereo not shown) [RP 18]	41300 nM			
CCCC1Oc2ccc(Br)cc2C2(C=C(N)OC2)C12COC2 (single isomer, unassigned) [RP 11b]	17400 nM			
